# Reference: article PMC8226449, “In Vitro Evaluation of the Squaramide-Conjugated Fibroblast Activation Protein Inhibitor-Based Agents AAZTA^5.SA.FAPi and DOTA.SA.FAPi” (Molecules, 2021)
# Read-outs that look alike come from different tables or passages of the source.
# Experiments:
# Recombinant human FAP [1] = molecular target: T1, Recombinant human FAP (Homo sapiens, UniProt Q12884); assay: FAP inhibition assay (IC50, Z-Gly-Pro-AMC substrate); type: biochemical; details: for Selectivitiy Index (FAP/PREP): ratio of PREP IC50 and FAP IC50
# T1 construct: made in house
# T1 sequence (Q12884 1-760): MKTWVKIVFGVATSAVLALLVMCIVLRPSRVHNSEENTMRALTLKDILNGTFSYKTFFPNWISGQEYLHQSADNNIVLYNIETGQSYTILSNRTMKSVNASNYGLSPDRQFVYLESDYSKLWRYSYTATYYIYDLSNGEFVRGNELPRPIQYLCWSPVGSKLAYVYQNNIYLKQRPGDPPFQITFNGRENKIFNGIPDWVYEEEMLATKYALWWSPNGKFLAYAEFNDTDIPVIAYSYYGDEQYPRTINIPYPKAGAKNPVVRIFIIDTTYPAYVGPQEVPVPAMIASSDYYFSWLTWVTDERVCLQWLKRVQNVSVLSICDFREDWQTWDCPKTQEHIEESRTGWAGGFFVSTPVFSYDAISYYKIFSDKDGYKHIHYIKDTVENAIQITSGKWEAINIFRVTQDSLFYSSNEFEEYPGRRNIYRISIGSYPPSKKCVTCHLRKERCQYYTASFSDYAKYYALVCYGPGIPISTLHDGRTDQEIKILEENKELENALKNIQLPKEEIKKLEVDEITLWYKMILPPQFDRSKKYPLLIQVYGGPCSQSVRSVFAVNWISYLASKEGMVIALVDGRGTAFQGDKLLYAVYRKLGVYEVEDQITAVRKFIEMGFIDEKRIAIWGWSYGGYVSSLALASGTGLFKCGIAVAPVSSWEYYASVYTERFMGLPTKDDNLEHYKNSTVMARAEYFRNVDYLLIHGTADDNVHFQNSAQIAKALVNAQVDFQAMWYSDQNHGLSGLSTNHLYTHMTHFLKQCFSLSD
# Description: (§1) Enzymes: Recombinant human FAP and PREP were expressed and purified as published. Recombinant human dipeptidyl 9 (DPP9) was purified as described by De Decker et al.. Human dipeptidyl peptidase 4 was purified from seminal plasma as published.
# (§2) IC50 measurements and counter-screening: IC50-measurements of the probes for FAP and PREP were carried out as published, using, respectively, Z-Gly-Pro-AMC and Suc-Gly-Pro-AMC as the substrate. IC50 experiments were repeated in triplicate, and the results are presented as mean ± standard deviation. Methods and data fitting were performed as published earlier. Screening against DPP4 and DPP9 was performed at final probe concentrations of 10 µM and 1 µM using Ala-Pro-paranitroanilide (pNA) as the substrate at the respective final concentrations of 25 μM (DPP4) and 150 μM (DPP9) at pH 7.4 (0.05 M HEPES-NaOH buffer with 0.1% Tween-20, 0.1 mg/mL BSA, and 150 mM NaCl). Probes were pre-incubated with the respective enzyme for 15 min at 37 °C; afterwards, the substrate was added, and the velocities of pNA release were measured kinetically at 405 nm for at least 10 min at 37 °C. Measurements were executed using the Infinite 200 (Tecan Group Ltd., Mennendorf, Switzerland), and the Magellan software was used to process the data.
# Recombinant human PREP [2] = molecular target: T2, Recombinant human PREP (Homo sapiens, UniProt P48147); assay: PREP inhibition assay (IC50, Suc-Gly-Pro-AMC substrate); type: biochemical; details: mean with standard deviation, n = 3
# T2 construct: made in house
# T2 sequence (P48147 1-710): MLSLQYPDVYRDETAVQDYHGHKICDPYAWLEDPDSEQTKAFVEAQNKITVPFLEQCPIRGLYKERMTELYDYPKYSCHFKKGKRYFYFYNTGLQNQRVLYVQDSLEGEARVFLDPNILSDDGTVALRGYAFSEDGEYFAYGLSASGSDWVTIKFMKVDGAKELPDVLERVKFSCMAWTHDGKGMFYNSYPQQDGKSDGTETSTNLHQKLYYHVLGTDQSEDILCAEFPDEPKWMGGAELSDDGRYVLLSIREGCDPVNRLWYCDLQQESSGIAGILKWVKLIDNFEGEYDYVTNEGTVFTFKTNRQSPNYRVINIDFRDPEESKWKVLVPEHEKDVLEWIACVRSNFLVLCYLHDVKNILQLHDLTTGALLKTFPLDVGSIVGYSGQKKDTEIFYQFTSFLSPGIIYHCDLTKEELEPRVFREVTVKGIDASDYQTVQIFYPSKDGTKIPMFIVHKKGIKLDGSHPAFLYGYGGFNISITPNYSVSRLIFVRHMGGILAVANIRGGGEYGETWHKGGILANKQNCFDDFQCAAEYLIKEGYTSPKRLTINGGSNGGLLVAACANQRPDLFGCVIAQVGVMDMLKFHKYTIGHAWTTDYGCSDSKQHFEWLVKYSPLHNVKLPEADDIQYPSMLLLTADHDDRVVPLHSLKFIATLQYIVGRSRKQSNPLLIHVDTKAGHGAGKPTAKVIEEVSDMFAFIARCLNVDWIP
# Description: as §1, §2
# DPPs (DPP4 and DPP9) = assay: Counter-screening against DPP4 and DPP9 (Ala-Pro-pNA substrate); type: biochemical, human; details: screened at 10 µM and 1 µM, reported as >1 µM if remaining activity more than 50% at 1 µM, n = 2
# Description: as §1, §2
# Recombinant human FAP [3] = molecular target: T1, Recombinant human FAP; design: method as in Moon et al. [24]; details: mean with standard deviation; ref Moon et al. [24]; cited from earlier work
# Recombinant human PREP [4] = molecular target: T2, Recombinant human PREP; details: mean with standard deviation; ref Moon et al. [24]; cited from earlier work
# [5] = Stability of radiolabelled complexes in human serum; type: in vitro ADME; details: human serum (HS), 37 °C
# Description: (§3) Labeling was carried out with 100–150 MBq gallium-68 in 300 µL of 1 M ammonium acetate (AmAc) buffer pH 5.5 and with 30–40 MBq scandium-44 in 1 mL of 0.25 M AmAc pH 4.0, and aliquots were taken at 1, 3, 5, 10, and 15 min. For lutetium-177, activity of 30–40 MBq in 300 µL of 1 M AmAc pH 5.5 was used, and aliquots were taken at 1, 3, 5, 15, 30, and 60 min. Stability was tested in 500 µL of human serum, phosphate-buffered saline, ethanol, and saline (0.9% isotonic NaCl solution) using ~5 MBq of tracer solution with >95% radiochemical purity. […] HS (human male AB plasma, USA origin) and PBS were purchased from Sigma Aldrich, and 0.9% saline from B. Braun Melsungen AG (Melsungen, Germany).
# [6] = Stability of radiolabelled complexes in PBS, saline (NaCl) and ethanol; type: physicochemical; details: 37 °C; for intact conjugate (stability): PBS and NaCl
# Description: as §3
# [7] = Lipophilicity (logD) by shake-flask method; type: physicochemical; details: pH = 7.4, 1-octanol/PBS
# Description: Lipophilicity (logD value) was determined via the “shake-flask” method. For both precursors AAZTA^5.SA.FAPi and DOTA.SA.FAPi logD (pH = 7.4), values were measured for the ^68Ga- and ^44Sc complexes.
# Lipophilicity of [^68Ga]Ga-AAZTA^5.SA.FAPi, [^44Sc]Sc-AAZTA^5.SA.FAPi and [^68Ga]Ga-DOTA.SA.FAPi was determined using the “shake-flask” methodology. After reaction of the precursor with the respective radionuclide, the reaction solution was adjusted to pH 7.4 with NaOH. Aliquots of ~5 MBq for the ^68Ga complexes and of ~3 MBq for the ^44Sc-complexed were taken and adjusted to a total volume of 700 μL with PBS (n= 4). 700 μL 1-octanol was added, and the solution was shaken for 2 min (1500 rpm). Afterwards, each tube was centrifuged for 2 min. 400 μL of the octanol- and PBS phases were pipetted in new tubes, and aliquots of each phase (3 µL of the PBS phase and 6 μL of the octanol phase) were measured via radio-TLC. The PBS phases were adjusted to 700 µL, and 700 μL octanol was added to each tube. The procedure was repeated twice. LogD values were calculated as the logarithm of the octanol/PBS ratio.
Compound,Selectivitiy Index (FAP/PREP) (Recombinant human FAP [1]),intact conjugate (stability) ([5]; 8 h),intact conjugate (stability) ([6]; 8 h),LogD7.4 [7],IC50 (DPPs (DPP4 and DPP9)),further results
"CN(CC(=O)O)C1(CCCCC(=O)NCCNc2c(NCCCCOc3ccc4nccc(C(=O)NCC(=O)N5CC(F)(F)C[C@H]5C#N)c4c3)c(=O)c2=O)CN(CC(=O)O)CCN(CC(=O)O)C1 [DATA^5m.SA.FAPi, reference compound]",2113,–,–,–,–,IC50 (Recombinant human FAP [3]): 0.0008 ± 0.0002 µM; IC50 (Recombinant human PREP [4]): 1.7 ± 0.1 µM
"N#C[C@@H]1CC(F)(F)CN1C(=O)CNC(=O)c1ccnc2ccccc12 [UAMC1110-FAP inhibitor, reference compound]",–,–,–,–,> 10 µM,–
N#C[C@@H]1CC(F)(F)CN1C(=O)CNC(=O)c1ccnc2ccc(OCCCCNc3c(NCCNC(=O)CCCCC4(N(CC(=O)[O-])CC(=O)[O-])CN(CC(=O)[O-])CCN(CC(=O)[O-])C4)c(=O)c3=O)cc12.[44Sc+3] [[^44Sc]Sc-AAZTA^5.SA.FAPi],–,> 97%,> 99%,−2.50 ± 0.11,–,intact conjugate (stability) ([5]; 1 h): > 99%; intact conjugate (stability) ([6]; 1 h): > 99%

# Continued, in another order:
Selectivitiy Index (FAP/PREP) (Recombinant human FAP [1]),intact conjugate (stability) ([5]; 8 h),intact conjugate (stability) ([6]; 8 h),LogD7.4 [7],Compound,IC50 (DPPs (DPP4 and DPP9)),further results
4286,–,–,–,N#C[C@@H]1CC(F)(F)CN1C(=O)CNC(=O)c1ccnc2ccc(OCCCCNc3c(NCCNC(=O)CCCCC4(N(CC(=O)O)CC(=O)O)CN(CC(=O)O)CCN(CC(=O)O)C4)c(=O)c3=O)cc12 [AAZTA^5.SA.FAPi],> 1 µM,"IC50 (Recombinant human FAP [1]; mean with standard deviation, n = 3): 0.00056 ± 2e-05 µM; IC50 (Recombinant human PREP [2]): 2.4 ± 0.4 µM"
–,> 97%,> 97%,–,N#C[C@@H]1CC(F)(F)CN1C(=O)CNC(=O)c1ccnc2ccc(OCCCCNc3c(NCCNC(=O)CN4CCN(CC(=O)[O-])CCN(CC(=O)[O-])CCN(CC(=O)[O-])CC4)c(=O)c3=O)cc12.[44Sc+3] [[^44Sc]Sc-DOTA.SA.FAPi],–,–
–,–,–,−2.53 ± 0.13,N#C[C@@H]1CC(F)(F)CN1C(=O)CNC(=O)c1ccnc2ccc(OCCCCNc3c(NCCNC(=O)CCCCC4(N(CC(=O)[O-])CC(=O)[O-])CN(CC(=O)[O-])CCN(CC(=O)[O-])C4)c(=O)c3=O)cc12.[68Ga+3] [[^68Ga]Ga-AAZTA^5.SA.FAPi],–,"intact complexes (stability) ([5]; over 2 h): > 99.9%; intact complexes (stability) ([6]; ethanol (EtOH) and saline (NaCl), over 2 h): > 99.9%"
